In article PMC12196264, “Design and Synthesis of Pyridine-Based Pyrrolo[2,3-d]pyrimidine Analogs as CSF1R Inhibitors: Molecular Hybridization and Scaffold Hopping Approach” (Pharmaceuticals, 2025):
In brackets after ≈: the same amount, converted by molar mass.

Key:
CSF1R = CSF1R (Homo sapiens, UniProt P07333); test: CSF1R enzymatic inhibitory assay (TR-FRET LANCE Ultra); assay type: biochemical; details: single eight-point titrations, ATP 25 μM, R^2 of fit in parentheses
Experimental: The TR-FRET-based LANCE Ultra assay (Perkin Elmer, Waltham, MA, USA) was used to determine IC50 values for various CSF1R inhibitors. Kinase activity and inhibition in this assay was measured as previously reported. Scigilian Analyze software version 5.8.5.15 (Scigilian, Montreal, QC, Canada) was used.

MDCK permeability assay = assay type: in vitro ADME, canine; details: dog, MDCK monolayer; for Papp A→B: A–B direction; for Papp B→A: B–A direction; for efflux ratio: read-out: MDCK Ratio (Papp B–A/A–B)
Experimental: Six selected compounds were assessed for metabolic stability (clearance) in mouse liver microsomes (MLM) and human liver microsomes (HLM), and apparent permeability (Papp) using a MDCK permeability assay. […] Although currently limited by solubility and permeability, its metabolic profile provides a starting point for targeted structural modifications aimed at overcoming these challenges.

cKIT = cKIT (Homo sapiens, UniProt P10721); test: KIT-WT LanthaScreen binding assay (Kd); details: single eight-point titrations, TR-FRET LanthaScreen Binding Assay; R^2 of fit in parentheses; read-out: Enzymatic Assay KIT (Kd)
cKIT, sequence (P10721 26-976): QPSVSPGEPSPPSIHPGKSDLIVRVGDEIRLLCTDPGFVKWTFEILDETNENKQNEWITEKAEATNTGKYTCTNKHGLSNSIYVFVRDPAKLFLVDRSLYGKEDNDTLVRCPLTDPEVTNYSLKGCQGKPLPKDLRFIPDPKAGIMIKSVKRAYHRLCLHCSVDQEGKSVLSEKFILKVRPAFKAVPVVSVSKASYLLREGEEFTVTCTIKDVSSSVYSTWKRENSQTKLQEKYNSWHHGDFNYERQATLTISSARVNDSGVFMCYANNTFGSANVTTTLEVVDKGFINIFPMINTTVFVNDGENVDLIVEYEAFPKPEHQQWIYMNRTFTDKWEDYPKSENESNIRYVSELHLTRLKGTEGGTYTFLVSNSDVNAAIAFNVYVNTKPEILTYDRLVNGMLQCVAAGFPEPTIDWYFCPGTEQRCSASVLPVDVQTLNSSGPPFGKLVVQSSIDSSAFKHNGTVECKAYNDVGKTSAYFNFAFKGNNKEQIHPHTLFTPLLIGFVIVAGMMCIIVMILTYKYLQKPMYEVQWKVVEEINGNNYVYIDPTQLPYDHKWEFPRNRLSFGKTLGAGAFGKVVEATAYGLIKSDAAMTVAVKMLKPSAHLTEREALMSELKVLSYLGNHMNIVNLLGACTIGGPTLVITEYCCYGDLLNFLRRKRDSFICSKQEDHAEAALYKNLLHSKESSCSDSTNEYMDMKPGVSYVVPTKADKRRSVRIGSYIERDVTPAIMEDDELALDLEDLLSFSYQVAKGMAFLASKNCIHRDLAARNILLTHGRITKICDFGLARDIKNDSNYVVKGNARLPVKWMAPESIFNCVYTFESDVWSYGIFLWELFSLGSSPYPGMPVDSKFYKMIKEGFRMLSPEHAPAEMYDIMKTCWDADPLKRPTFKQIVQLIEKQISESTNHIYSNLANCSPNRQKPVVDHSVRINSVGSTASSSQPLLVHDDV
Experimental: The TR-FRET-based LanthaScreen Binding Assay was performed to determine Kd values of synthesized derivatives against cKIT.
Subsequently, 8 µL of kinase anti-GST antibody mixture was added, followed by incubation at 4 °C for 30 min in a pre-cooled, humidified box to minimize edge effects. The reaction was initiated by adding 5 µL of tracer working solution and mixed on a Bioshake 5000 microplate shaker (Q Instruments, Jena, Germany). […] Kd values were calculated from sigmoidal dose-response curves using Scigilian Analyze software version 5.8.5.15 (Scigilian, Montreal, QC, Canada).

[1] = system: Ba/F3 cells engineered to be dependent on CSF1R but added additional IL-3; test: Cell viability assay with Ba/F3-hCSF1R cells with added IL-3; assay type: cell-based; details: Mus musculus, BaF3; Ba/F3 CSF1R cells with additional IL-3; read-out: Cellular Assay IC50 (μM), Ba/F3 IL-3
Experimental: (§1) Given the promising enzymatic activity of the synthesized derivatives, cellular assays were performed using Ba/F3 cells engineered to depend on constitutively active CSF1R. […] We have also previously observed a low correlation between enzymatic and cellular activities, which may arise from the enzymatic protein construct not accurately mimicking the active conformation of CSF1R in a cellular context.
(§2) Performed as reported previously.

[2] = system: Ba/F3 cells engineered to be dependent on CSF1R; test: Cell viability assay with Ba/F3-hCSF1R cells; assay type: cell-based; details: for IC50: Mus musculus, BaF3, Ba/F3 cells dependent on CSF1R, with standard deviation, read-out: Cellular Assay IC50 (μM), Ba/F3 CSF1R
Experimental: as §1, §2

[3] = Microsomal stability, mouse liver microsomes; assay type: in vitro ADME; details: mouse liver microsome
Experimental: (§3) The aqueous solubility of the compounds and metabolic stability under oxidative conditions was performed as described previously.

Kinetic solubility = assay type: physicochemical; details: aqueous buffer, kinetic from dmso stock; spectrophotometric, pH 7.4 in HEPES buffer
Experimental: as §3

CSF1R, sequence (P07333 20-972): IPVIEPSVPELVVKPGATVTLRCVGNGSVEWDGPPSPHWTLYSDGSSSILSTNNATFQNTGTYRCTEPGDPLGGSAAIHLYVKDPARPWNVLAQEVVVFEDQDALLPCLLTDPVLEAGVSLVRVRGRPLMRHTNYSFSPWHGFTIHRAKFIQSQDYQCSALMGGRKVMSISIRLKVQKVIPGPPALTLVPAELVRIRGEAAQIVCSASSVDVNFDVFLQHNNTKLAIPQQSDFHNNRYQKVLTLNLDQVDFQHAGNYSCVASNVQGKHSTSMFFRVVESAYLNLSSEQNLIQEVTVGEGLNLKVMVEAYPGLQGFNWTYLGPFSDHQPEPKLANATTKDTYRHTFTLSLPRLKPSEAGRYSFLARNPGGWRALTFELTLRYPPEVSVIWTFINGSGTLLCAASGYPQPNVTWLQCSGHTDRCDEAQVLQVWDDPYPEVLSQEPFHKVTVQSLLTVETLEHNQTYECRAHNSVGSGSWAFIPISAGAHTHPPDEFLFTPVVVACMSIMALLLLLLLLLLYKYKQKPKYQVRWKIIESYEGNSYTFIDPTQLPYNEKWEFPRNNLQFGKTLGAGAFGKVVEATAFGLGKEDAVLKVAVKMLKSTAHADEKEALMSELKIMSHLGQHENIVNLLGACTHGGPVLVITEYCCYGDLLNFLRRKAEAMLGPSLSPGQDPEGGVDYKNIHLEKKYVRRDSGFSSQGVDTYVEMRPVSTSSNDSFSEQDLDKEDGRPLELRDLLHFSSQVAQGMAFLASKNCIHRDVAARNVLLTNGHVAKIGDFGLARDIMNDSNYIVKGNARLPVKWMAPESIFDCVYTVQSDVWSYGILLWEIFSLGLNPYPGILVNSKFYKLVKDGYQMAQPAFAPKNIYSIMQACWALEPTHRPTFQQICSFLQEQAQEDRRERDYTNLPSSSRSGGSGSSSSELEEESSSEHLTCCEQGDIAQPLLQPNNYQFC

SMILES | IC50 (CSF1R) [nM] | Papp A→B (MDCK permeability assay) [×10⁻⁶ cm/s] | Papp B→A (MDCK permeability assay) [×10⁻⁶ cm/s] | efflux ratio (MDCK permeability assay) | Kd (cKIT) [nM] | IC50 [1] [µM] | Cellular activity in Ba/F3 CSF1R cells (in words) ([2]; Ba/F3 cells dependent on constitutively active CSF1R) | IC50 [2] [µM] | MLM in vitro intrinsic clearing [3] [µL/min/mg] | solubility kinetic (Kinetic solubility) [µM]
CN(Cc1ccc(NCc2ccccc2)nc1)c1ncnc2[nH]ccc12 [Compound 4a, N-((6-(Benzylamino)pyridin-3-yl)methyl)-N-methyl-7H-pyrrolo[2,3-d]pyrimidin-4-amine] | 857 | 34 | 24.7 | 0.72 | > 1000 | 1.39 ± 0.4 | relatively high cellular activity | 1.16 ± 0.22 | 277.3 | 20.9 (≈ 7.2 µg/mL)
CN(Cc1ccc(NCc2ccccn2)nc1)c1ncnc2[nH]ccc12 [Compound 4b, N-Methyl-N-((6-((pyridin-2-ylmethyl)amino)pyridin-3-yl)methyl)-7H-pyrrolo[2,3-d]pyrimidin-4-amine] | > 1000 | 42 | 28.8 | 0.69 | > 1000 | > 10 | – | > 10 | 101.9 | 441 (≈ 152 µg/mL)
CN(Cc1ccc(NCc2ccc(C(F)(F)F)nc2)nc1)c1ncnc2[nH]ccc12 [Compound 4c, N-Methyl-N-((6-(((6-(trifluoromethyl)pyridin-3-yl)methyl)amino)pyridin-3-yl)methyl)-7H-pyrrolo[2,3-d]pyrimidin-4-amine] | > 1000 | 18.3 | 10 | 0.55 | > 1000 | > 10 | – | 9.96 ± 0.02 | 150.7 | 20.9 (≈ 8.64 µg/mL)
Cc1cccc(CN(C)c2ncnc3[nH]cc(-c4ccc(NCc5cccnc5)nc4)c23)c1 [Compound 8, N-Methyl-N-(3-methylbenzyl)-5-(6-((pyridin-3-ylmethyl)amino)pyridin-3-yl)-7H-pyrrolo[2,3-d]pyrimidin-4-amine] | > 1000 | 15.9 | 4.4 | 0.27 | 397 | > 10 | – | 8.46 ± 0.89 | 1540.3 | 70.4 (≈ 30.7 µg/mL)
Cc1cccc(CN(C)c2ncnc3[nH]c(-c4ccc(NCc5cccc(C)c5C)nc4)cc23)c1 [Compound 12d, 6-(6-((2,3-Dimethylbenzyl)amino)pyridin-3-yl)-N-methyl-N-(3-methylbenzyl)-7H-pyrrolo[2,3-d]pyrimidin-4-amine] | > 1000 | – | – | – | > 1000 | – | – | – | – | –
COc1ccc(CNc2ccc(-c3cc4c(N(C)Cc5cccc(C)c5)ncnc4[nH]3)cn2)cc1 [Compound 12e, 6-(6-((4-Methoxybenzyl)amino)pyridin-3-yl)-N-methyl-N-(3-methylbenzyl)-7H-pyrrolo[2,3-d]pyrimidin-4-amine] | 10.5 | – | – | – | > 1000 | 9.25 | – | 6.24 | – | –
Cc1cccc(CN(C)c2ncnc3[nH]c(-c4ccc(NCc5ccccc5)nc4)cc23)c1 [Compound 14a, 6-(6-(Benzylamino)pyridin-3-yl)-N-methyl-N-(3-methylbenzyl)-7H-pyrrolo[2,3-d]pyrimidin-4-amine] | 6 | – | – | – | > 1000 | – | – | – | – | –
FC(F)(F)c1ccc(CNc2ccc(Cc3c[nH]c4ncc(Cl)cc34)cn2)cn1 [Pexidartinib, reference compound] | – | 4.5 | 1.5 | – | – | 6.54 ± 0.61 | – | 0.064 ± 0.04 | – | 20.5 (≈ 8.57 µg/mL)
